# Key:
# phosphotyrosine JAK2 = experiment: Western blotting for phosphotyrosine JAK2; assay type: cell-based, human
# Method: (§1) Western Blotting. Treated cell samples were lysed in 30 mM Hepes, pH 7.5, 10 mM NaCl, 5 mM MgCl2, 25 mM NaF, 1 mM EGTA, 1% Triton-X-100, 10% glycerol, 2 mM sodium orthovanadate, 10 μg/ml aprotinin, 10 μg/ml soybean trypsin inhibitor, 25 μg/ml leupeptin, 2 mM PMSF, and 6.4 mg/ml p-nitrophenylphosphate. Phospho-STAT3, phospho-AKT, phospho-MEK, and phospho-p42/p44 MAPK antibodies were obtained from Cell Signaling Technologies, Cambridge, Mass. Antibodies to STAT3, JAK2, and phospho-INK were purchased from Santa Cruz Biotechnology, Santa Cruz, Calif. Phospho-JAK2 antibody came from Upstate Biotechnology, Lake Placid, N.Y. Membranes were blocked in either 5% milk in PBS, pH 7.4, containing 0.1% Tween-20 (PBS-T) or 1% BSA in TBS, pH 7.5, containing 0.1% Tween-20 (TBS-T). Phospho-specific antibodies (excepting P-MAPK and P-JNK) were incubated in 1% BSA in TBS-T while all other antibodies were diluted in 5% milk in PBS-T for either 2 hr at room temperature or overnight at 4° C. HRP-conjugated secondary antibodies (Jackson ImmunoResearch) were diluted in 5% milk in either PBS-T or TBS-T at 1:1000 dilution for one hour at room temperature. Western blots were visualized using enhanced chemiluminescence as described previously (Blaskovich, M. A. et al. Nat. Biotechnol., 2000, 18:1065-1070).
# phospho-Akt = experiment: Western blotting for phospho-Akt; assay type: cell-based, human; conditions: A549 and MDA-MB-468 cells, up to 10 μM
# Method: as §1
# Src = Src kinase autophosphorylation assay on immunoprecipitates; assay type: biochemical; conditions: immunoprecipitates from A549, MDA-MB-468 or v-Src/NIH 3T3 cells
# Method: Src Kinase Assay. A549, MDA-MB-468, and v-Src cells were harvested and lysed for 30 min on ice in RIPA150 buffer (10 mM Tris, pH 7.5, 150 mM NaCl, 10% glycerol, 5 mM EDTA, 1% Triton-X-100, 0.1% SDS, 100 μM sodium orthovanadate, 10 μg/ml aprotinin, 10 μg/ml leupeptin, 1 μg/ml antipain). Samples were spun at high speed to clear, then 1000 μg of protein were immunoprecipitated per treatment condition with 2 μg v-Src antibody (Ab-1, Oncogene Research Products, San Diego, Calif.) rocking overnight at 4° C. 25 μl of protein A/G PLUS agarose then was added and rocking continued for 4 hr at 4° C. Samples were spun to collect agarose pellet, and pellet washed three times in RIPA150 buffer, twice in RIPA10 buffer (10 mM Tris, pH 7.5, 10 mM NaCl, 10% glycerol, 5 mM EDTA, 1% Triton-X-100, 0.1% SDS, 100 μM sodium orthovanadate 10 μg/ml aprotinin, 10 μg/ml leupeptin, 1 μg/ml antipain), and three times in 40 mM Tris, pH 7.4. Pellet was then resuspended in 30 μl kinase reaction buffer (20 mM Tris, pH 7.4, 5 mM MgCl2) containing 10 μCi γ-[^32P]ATP. Inhibitors were preincubated for several minutes before the addition of the ATP. Kinase reactions were carried out at room temperature for 15 min. Reaction was stopped with the addition of 2×SDS-PAGE sample buffer. Samples were boiled and run on 10% SDS-PAGE gels. Autophosphorylation results were visualized by autoradiography.
# STAT3 = experiment: Western blotting for STAT3 protein levels; assay type: cell-based, human; conditions: A549 and MDA-MB-468 cells
# Method: as §1
# Immunoprecipitation of STAT3. […]
# Calu-1 tumors = experiment: Antitumor activity, Calu-1 xenograft in nude mice; assay type: in vivo; conditions: 1 mg/kg/day i.p.
# Source text: Antitumor Activity in the Nude Mouse Tumor Xenograft Model. Nude mice and C57 BL-6 black mice (National Cancer Institute, Bethesda, Md.) were maintained in accordance with the Institutional Animal Care and Use Committee (IACUC) procedures and guidelines. v-Src- and oncogenic H-Ras-transformed NIH 3T3, A549, MDA-MB-468 and Calu-1 cells were harvested, resuspended in PBS and injected s.c. into the right and left flank (10×10^6 cells per flank) of 8 week old female nude mice as reported previously (Sun, J. et al. Cancer Res., 1999, 59:4919-4926). Similarly, murine B16-F10 Melanoma cells were injected s.c. into the right and left flank (10^6 cells per flank) of C57 black mice. When tumors reached about 150 mm^3, animals were randomized (five animals per group; two tumors per animal) and dosed i.p. with 0.2 ml once daily. Control animals received DMSO (20%) vehicle whereas treated animals were injected with JSI-124 (1 mg/kg/day) in 20% DMSO in water. The tumor volumes were determined by measuring the length (l) and the width (w) and calculating the volume (V=1w^2/2) as described previously (Sun, J. et al. Cancer Res., 1999, 59:4919-4926). Statistical significance between control and treated animals were evaluated by using Student's t-test. […] Percent surviving mice was determined by monitoring the death of mice until all mice died. […]
# phosphotyrosine Src = experiment: Western blotting for phosphotyrosine Src; assay type: cell-based, human; conditions: A549 and MDA-MB-468 cells, various concentrations, 4 hr
# Method: as §1
smiles,measurement,setting,value
"CC(C)(O)/C=C/C(=O)[C@](C)(O)[C@H]1[C@H](O)C[C@@]2(C)[C@@H]3CC=C4[C@@H](C=C(O)C(=O)C4(C)C)[C@]3(C)C(=O)C[C@]12C [JSI-124, cucurbitacin I]",levels of tyrosine phosphorylated JAK2,"phosphotyrosine JAK2; A549 and MDA-MB-468 cells, various concentrations, 4 hr",effective at suppressing the levels of tyrosine phosphorylated JAK2
same,inhibition of phospho JAK2 levels (in words),"phosphotyrosine JAK2; A-549 cells, 0-10 μM",inhibits both phospho STAT3 and phospho JAK2 levels
same,IC50,"phosphotyrosine JAK2; A-549 cells, Western blotting, read-out: IC50 for phospho-JAK2",200 nM
same,phospho-Akt levels,phospho-Akt,no inhibitory effect
same,Src kinase activity (autophosphorylation) in vitro,Src,not affected
same,STAT3 protein levels,STAT3,no effect on the protein levels of STAT3 and JAK2
same,effect on growth of Calu-1 tumors,Calu-1 tumors,little effect
same,levels of tyrosine phosphorylated Src,phosphotyrosine Src,not those of tyrosine phosphorylated Src

# From patent US8691799B2, “Materials and methods for treatment of cancer and identification of anti-cancer compounds” (priority 2001, dated 2014)
